Where two headings read alike, the source gives them in different places.
Assays:
Thrombocyte aggregation = experiment: Antithrombotic activity: collagen-induced thrombocyte aggregation in platelet-rich plasma after oral administration (Born and Cross); type: in vivo, rat; settings: for inhibition at 10 mg/kg / inhibition at 5 mg/kg: po, read-out: Percentage inhibition of aggregation
Description: 1. Antithrombotic activity (see BORN and CROSS, J. Physiol. 170, 397 (1964)):
Groups of three male rats weighing about 500 g are given the test substances, suspended in 1% tylose (A and B) or in distilled water (C), in a volume of 0.2 ml per 100 g of the weight of the animal, by esophageal tube. Shortly before the blood samples are taken (1 hour after administration of the substance) the animals are anesthetised with sodium pentobarbital (50 mg/kg i.p.). After the abdomen has been opened up, the required quantity of blood is taken by puncturing the aorta.
The blood is treated with sodium citrate (0.2% final concentration) to prevent it coagulating. Since the aggregation before and after administration of the substance in rats cannot be measured in the same animal, sets of animals from which the plasma has been pooled are compared. In this way, multiple measurements can be made.
Thrombocyte aggregation is measured in platelet-rich plasma (PRP) (quantity of plasma for each test: 1 ml). In order to obtain the PRP, the blood is centrifuged for 10 minutes at 1,000 to 1,200 revolutions per minute (approx. 150 g). The low-platelet plasma for calibrating the aggregometer is obtained by centrifuging (4,000 rpm for 10 minutes).
The pattern of the decrease in optical density of the platelet suspension after the addition of collagen is measured photometrically and recorded. The height of the curve in mm measured at the moment of maximum light transmittance is the measurement of the intensity of aggregation. A 6-channel aggregometer is used for the measurements.
The quantity of collagen (2 to 5 μl/ml of plasma) is such that an irreversible reaction curve is obtained.
The sets of animals treated with the substance are compared with untreated control groups.

[1] = Tolerability: toxic side effects at the maximum dosages administered; type: in vivo
mouse = experiment: Approximate acute toxicity on the mouse after oral administration; type: in vivo; settings: 250 mg/kg oral, group of 10 animals, observation period of 14 days
Description: The approximate acute toxicity of substance B is tested on the mouse after oral administration of a dosage of 250 mg/kg to a group of 10 animals.

[2] = 10 mg/kg p.o., rat, 1 hour after administration, collagen, control 130 (A), 110 (B)
[3] = maximum dosages administered (10 mg/kg p.o.)
[4] = 5 mg/kg p.o., rat, 1 hour after administration, collagen, control 108 (B), 113 (C)

Compound	Intensity of Aggregation, Height of curve (opt. density), Substance (Thrombocyte aggregation; [2])	inhibition at 10 mg/kg (Thrombocyte aggregation; Rattus norvegicus, 1 h)	toxic side effects [1, 3]	Intensity of Aggregation, Height of curve (opt. density), Substance (Thrombocyte aggregation; [4])	inhibition at 5 mg/kg (Thrombocyte aggregation; Rattus norvegicus, 1 h)	Acute toxicity, deaths (mouse)	inhibition at 5 mg/kg (Thrombocyte aggregation; 5 mg/kg p.o., rat, 1 hour after administration, collagen)	toxic side effects ([1]; in vivo, po, 10 mg/kg)
COc1cc2c(cc1OC)CC[N+](Cc1ccccc1Cl)=C2.O=S(=O)([O-])O [A, 2-(2-Chlorobenzyl)-6,7-dimethoxy-3,4-dihydro-isoquinolinium hydrogensulphate]	69 mm	47%	do not show any toxic side effects					
Clc1ccccc1C[N+]1=Cc2ccccc2CC1.O=S(=O)([O-])O [B, 2-(2-Chlorobenzyl)-3,4-dihydro-isoquinolinium hydrogensulphate]	0 mm	100%	do not show any toxic side effects	0 mm	100%	None of the animals died		
COc1cc2c(cc1OC)CC[N+](Cc1cc(OC)c(OC)c(OC)c1)=C2.[Cl-] [C, 2-(3,4,5-Trimethoxybenzyl)-6,7-dimethoxy-3,4-dihydro-isoquinolinium chloride]				10 mm			89%	do not show any toxic side effects

Reference: patent publication US4678792A, “Quaternary 3,4-dihydro-isoquinolinium salts” (Dr. Karl Thomae GmbH, priority 1984, dated 1987)
